Reference: paper PMC3625376 (Journal of the American Chemical Society, 2013)

Test system: blood glucose in diabetic rats
Experiment: diabetic rat assay
Format: in vivo
Conditions: Figure 5 panels C and D

Substance	activity in lowering blood glucose in diabetic rats (in words)
WT insulin (biosynthetic): wild type (wt) biosynthetic insulin used as positive control	fully active
[Asp^B10, Lys^B28, Pro^B29]-insulin [DKP insulin (biosynthetic)]	fully active
